Measurements from ChEMBL document CHEMBL1201862, “PubChem BioAssay data set” (2004).
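Step 1: Grow cells in 96-well plates. Step 2: Expose to compound for 48 hours at 5 concentrations. Step 3: Interpolate endpoints linearly; if unreached, use highest concentration. GI50: concentration for 50% inhibition of growth.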 Calls of active or inactive are those of the source. No stated cut-off is given here; in the data, active = GI50 up to about 1.1 µM and inactive = higher.

Tests used:
Assay in all cases: inhibition of tumour cell growth, NCI panel, 48 h
KM-20L2 = system: KM-20L2
SK-MEL-2 = system: SK-MEL-2
HOP-62 = system: HOP-62
HT-29 = system: HT-29
SNB-75 = system: SNB-75
HCT-15 = system: HCT-15
HOP-92 = system: HOP-92
TK-10 = system: TK-10
UACC-257 = system: UACC-257
NCI-H522 = system: NCI-H522
K562 = system: K562
EKVX = system: EKVX
OVCAR-3 = system: OVCAR-3
UO-31 = system: UO-31
LXFL 529 = system: LXFL 529
BT-549 = system: BT-549
DU-145 = system: DU-145
MDA-N = system: MDA-N
MDA-MB-435 = system: MDA-MB-435
PC-3 = system: PC-3

Compound | GI50 (KM-20L2) | GI50 (SK-MEL-2) | GI50 (HOP-62) | GI50 (HT-29) | GI50 (SNB-75) | GI50 (HCT-15) [µM] | GI50 (HOP-92) | GI50 (TK-10) | GI50 (UACC-257) | GI50 (NCI-H522) | GI50 (K562) | GI50 (EKVX) | GI50 (OVCAR-3) | GI50 (UO-31) | GI50 (LXFL 529) | GI50 (BT-549) | GI50 (DU-145) | GI50 (MDA-N) | GI50 (MDA-MB-435) | GI50 (PC-3)
CN(C)/C=N\c1cc[nH]c(=O)n1 | > 100 µM (inactive) | > 100 µM (inactive) | > 100 µM (inactive) | > 100 µM (inactive) | > 100 µM (inactive) | > 100 | > 100 µM (inactive) | > 100 µM (inactive) | > 100 µM (inactive) | > 100 µM (inactive) | > 100 µM (inactive) | > 100 µM (inactive) | > 100 µM (inactive) | > 100 µM (inactive) | > 100 µM (inactive) |  |  |  |  | 
O=C(Nc1ccc(Cl)cc1)/C(Cc1cccc[n+]1[O-])=N\Nc1ccc([N+](=O)[O-])cc1[N+](=O)[O-] | > 100 µM (inactive) | > 100 µM (inactive) | > 100 µM (inactive) |  | > 100 µM (inactive) | > 100 | > 100 µM (inactive) | > 100 µM (inactive) | > 100 µM (inactive) | > 100 µM (inactive) | > 100 µM (inactive) | > 100 µM (inactive) | > 100 µM (inactive) | > 100 µM (inactive) | > 100 µM (inactive) |  |  |  |  | 
C=CC1(CC)/C(=N\O)C(CC)(CC)C(=O)N1O (centres undefined) | > 100 µM (inactive) | > 100 µM (inactive) | > 100 µM (inactive) | > 100 µM (inactive) | > 100 µM (inactive) | > 100 | 93.8 µM (inactive) | > 100 µM (inactive) | > 100 µM (inactive) | > 100 µM (inactive) | > 100 µM (inactive) | > 100 µM (inactive) | > 100 µM (inactive) | > 100 µM (inactive) | > 100 µM (inactive) |  |  |  |  | 
Cc1ccc(/N=N/C2S/C(=C(\C#N)c3nc4ccccc4[nH]3)N(c3ccccc3)C2=O)cc1 (centres undefined) | > 100 µM (inactive) | > 100 µM (inactive) | 30.1 µM (inactive) | > 100 µM (inactive) | 29.2 µM (inactive) | > 100 | 37.3 µM (inactive) | 36.9 µM (inactive) | 55 µM (inactive) | > 100 µM (inactive) | 20.4 µM (inactive) | > 100 µM (inactive) | > 100 µM (inactive) | 39 µM (inactive) | > 100 µM (inactive) |  |  |  |  | 
CCCCCCC1CCC2CCCC(C)N12 (centres undefined) | 25.2 µM (inactive) | 28.2 µM (inactive) | > 100 µM (inactive) | > 10 µM (inactive) | 39.8 µM (inactive) | 32.8 | 25.8 µM (inactive) | 39.2 µM (inactive) | 37.9 µM (inactive) | 22.9 µM (inactive) | 13.8 µM (inactive) | > 100 µM (inactive) | > 100 µM (inactive) | 19.7 µM (inactive) | > 10 µM (inactive) |  |  |  |  | 
C=CC1=C(C)/C(=C/C2=NC(=C\c3[nH]c(CC4NC(=O)C(C)/C4=C\C)c(C)c3CCC(=O)O)/C(CC(=O)O)=C2C)NC1=O (centres undefined) | > 100 µM (inactive) | > 100 µM (inactive) | > 100 µM (inactive) | > 100 µM (inactive) | > 100 µM (inactive) | > 100 | 70 µM (inactive) | > 100 µM (inactive) | > 100 µM (inactive) | > 100 µM (inactive) | > 100 µM (inactive) | > 100 µM (inactive) | > 100 µM (inactive) | > 100 µM (inactive) | > 100 µM (inactive) |  |  |  |  | 
Cc1cc2c(c(C(N)=O)c1C)-c1cccc(Cl)c1C2=O | > 100 µM (inactive) | > 100 µM (inactive) | > 100 µM (inactive) | > 100 µM (inactive) | 6.7 µM (inactive) | > 100 | > 100 µM (inactive) | > 100 µM (inactive) | > 100 µM (inactive) | 27 µM (inactive) | > 100 µM (inactive) | > 100 µM (inactive) | > 100 µM (inactive) | 41.6 µM (inactive) | > 100 µM (inactive) |  |  |  |  | 
O=c1ccn([C@H]2CSC[C@@H](CO)C2)c(=O)[nH]1 | > 100 µM (inactive) | > 100 µM (inactive) | > 100 µM (inactive) | > 100 µM (inactive) | 56.4 µM (inactive) | > 100 | > 100 µM (inactive) | > 100 µM (inactive) | > 100 µM (inactive) | > 100 µM (inactive) | > 100 µM (inactive) | > 100 µM (inactive) | > 100 µM (inactive) | > 100 µM (inactive) | > 100 µM (inactive) |  |  |  |  | 
CCOC(=O)C(=O)Nc1c(N(CC)CC)n2ccccc2nc1=O | > 100 µM (inactive) | > 100 µM (inactive) | > 100 µM (inactive) | > 100 µM (inactive) | > 100 µM (inactive) | > 100 | > 100 µM (inactive) |  |  | > 100 µM (inactive) | > 100 µM (inactive) | > 100 µM (inactive) | > 100 µM (inactive) | > 100 µM (inactive) | > 100 µM (inactive) |  |  |  |  | 
O=c1c(NO)c([N+](=O)[O-])cnn1-c1ccccc1 | 7.19 µM (inactive) | 14.9 µM (inactive) | 8.83 µM (inactive) | 2.6 µM (inactive) | 14.6 µM (inactive) | 4.78 | 7.64 µM (inactive) | 18.4 µM (inactive) | 6.37 µM (inactive) | 1.97 µM (inactive) | 0.908 µM (active) | 11.6 µM (inactive) | 2.98 µM (inactive) | 5.27 µM (inactive) | 1.76 µM (inactive) | 1.58 µM (inactive) | 13.8 µM (inactive) | 2.29 µM (inactive) | 1.88 µM (inactive) | 1.55 µM (inactive)
Cc1c(-c2nnc(-c3ccccc3)o2)c(=O)n(-c2ccccc2)n1C | > 100 µM (inactive) | > 100 µM (inactive) | > 100 µM (inactive) | > 100 µM (inactive) | > 100 µM (inactive) | > 100 | > 100 µM (inactive) | > 100 µM (inactive) | > 100 µM (inactive) | > 100 µM (inactive) | > 100 µM (inactive) | > 100 µM (inactive) | > 100 µM (inactive) | > 100 µM (inactive) | > 100 µM (inactive) |  |  |  |  | 
CC[n+]1c(/C=C/c2cc(C(=O)OC)n3c2sc2ccccc23)sc2ccccc21 | 17.8 µM (inactive) | 18.7 µM (inactive) | 0.434 µM (active) | 16.6 µM (inactive) | 15.7 µM (inactive) | 18.8 | 15.5 µM (inactive) |  | 17.3 µM (inactive) | 15.6 µM (inactive) |  | 20.7 µM (inactive) | 20.3 µM (inactive) | 17.5 µM (inactive) | 13.8 µM (inactive) |  |  |  |  | 
Cc1ccc(NC(=O)CC2C(=O)Nc3ccccc3S2(=O)=O)cc1C (centres undefined) | > 100 µM (inactive) | > 100 µM (inactive) |  | > 100 µM (inactive) | > 100 µM (inactive) | > 100 | > 100 µM (inactive) | > 100 µM (inactive) | > 100 µM (inactive) | > 100 µM (inactive) | > 100 µM (inactive) | > 100 µM (inactive) | > 100 µM (inactive) | > 100 µM (inactive) | > 100 µM (inactive) |  |  |  |  | 
CN1C(c2ccccc2)CC(O)CC1c1ccccc1 (centres undefined) | > 100 µM (inactive) | > 100 µM (inactive) | > 100 µM (inactive) | > 100 µM (inactive) | > 100 µM (inactive) | > 100 | > 100 µM (inactive) | > 100 µM (inactive) | > 100 µM (inactive) | > 100 µM (inactive) | > 100 µM (inactive) | > 100 µM (inactive) | > 100 µM (inactive) | > 100 µM (inactive) | > 100 µM (inactive) |  |  |  |  | 
COc1cc(-c2[nH]ccc2Cl)oc1C1=C2N=C3C=C2C(C(C)C)C1CCCCCCCC3 (centres undefined) | 0.308 µM (active) | 0.483 µM (active) | 0.774 µM (active) | 0.252 µM (active) | 1.12 µM (inactive) | 0.678 | 1.69 µM (inactive) | 2.05 µM (inactive) | 1.29 µM (inactive) | 0.407 µM (active) | 0.403 µM (active) | 0.944 µM (active) | 0.61 µM (active) | 1.03 µM (active) | 0.515 µM (active) | 1.1 µM (active) | 0.614 µM (active) | 0.466 µM (active) | 0.401 µM (active) | 0.332 µM (active)
